Results as given in patent US6043219A, “Broad spectrum chemotherapeutic peptide” (Kansas State University Research Foundation, priority 1997, dated 2000).
Entries after “also recorded” stand apart in the source; their conditions may differ.

What was measured:
[1] = test system: C. renale; experiment: Effect of BacR1 on viability of C. renale (A550 and viable cell counts over time); format: cell-based, Corynebacterium renale
Procedure: FIG. 9 includes a pair of graphs illustrating the effect of BacR1 on the viability C. renale; the A550 of a culture of control cells (-.circle-solid.-) and a culture of cells incubated with BacR1 at a concentration of 100 AU/ml (-.box-solid.-) was measured at respective times;
FIG. 10 includes a pair of graphs illustrating the effect of BacR1 on the viability C. renale; viable cell counts for a culture of control cells (-.circle-solid.-) and a culture of cells incubated with BacR1 at a concentration of 100 AU/ml (-.box-solid.-) were determined at respective times.
BacR1 kills C. renale in a dose-dependent fashion, with a MIC50 of approximately 6 AU/ml (FIG. 8). Furthermore, the killing is rapid in the absence of cell lysis as evidenced in FIGS. 9 and 10. No viable cells were detected after 120 min of exposure to BacR1. […] Such recovery would be observed with a bacteriostatic agent.

[2] = test system: Moraxella bovis; experiment: Inhibitory spectrum, bactericidal assay (plate method); format: cell-based
[3] = crude preparation, Rogolsky et al. paper; cited from earlier work
[4] = test system: Corynebacterium renale; experiment: Inhibitory spectrum, bactericidal assay (plate method); format: cell-based; conditions: C. renale compared with other sensitive organisms
[5] = test system: Pasteurella multocida; experiment: as above; format: cell-based
[6] = test system: C. renale; conditions: finally purified BacR1, 37° C., 5 h, A550
[7] = Preparative isoelectric focusing (Rotofor); format: physicochemical; conditions: ammonium sulfate-precipitated culture supernatant, ampholytes pH 3-10, fractions 15 through 17
Procedure: Isoelectric focusing of ammonium sulfate-precipitated culture supernatants of S. aureus UT0007 was carried out on a Rotofor isoelectric focusing cell (Bio-Rad, Richmond, Calif.) in order to define certain biophysical characteristics of BacR1. Concentrated culture supernatants were dialyzed overnight in 3,500 molecular-weight-cutoff dialysis tubing (SpectraPor, Los Angeles, Calif.) against 4 L distilled water at 4° C. The dialyzed sample was centrifuged at 9,000× g for 10 min at 4° C. to remove insoluble material, and the supernatant was diluted to a total volume of 55 ml with distilled water. Ampholytes (pH 3-10) (Fisher, St. Louis, Mo.) were added to a final concentration of 1% and the sample was loaded into the Rotofor cell for focusing at 12 W constant power at 4° C. The initial conditions were approximately 600 V and 35 mA; upon equilibrium the values were approximately 1200 V and 15 mA. Twenty individual fractions were harvested and the total protein, pH, and BacR1 activity for each fraction was determined.

[8] = test system: C. renale; experiment: SDS-PAGE bioassay (gel overlaid with top agar containing C. renale); format: cell-based, Corynebacterium renale; conditions: finally purified BacR1
Description: Purified preparations of BacR1 were subjected to electrophoretic analysis by SDS-PAGE. After electrophoresis, gels were either silver stained (Blum et al. 1987. Electrophoresis 8:93-99) or bioassayed using a slight modification of the method of Bhunia et al. (1987. J. Indust. Microbiol. 2:319-322). Briefly, each protein sample was electrophoresed in a 10-20% SDS-PAGE gradient gel (Bio-Rad, Richmond, Calif.) as previously described (Laemmli et al. 1970. Nature. 227:680-685). After electrophoresis, SDS was removed by soaking the gel in 20% isopropanol-10% acetic acid in water for 2 h, followed by rinsing in distilled water for 4 h. The gel was then placed on a BHT-80 agar plate and overlaid with BHT-80 top agar (0.7% agar) containing C. renale. After incubation at 37° C. overnight, the plate/gel combination was examined for zones of growth inhibition.

[9] = test system: Haemophilus parasuis; experiment: Inhibitory spectrum, bactericidal assay (plate method); format: cell-based; conditions: Hemophilus parasuis
[10] = test system: Bordetella pertussis; experiment: as above; format: cell-based; conditions: Bordatella pertussis
[11] = Stability of BacR1: residual activity by bactericidal assay (plate method) after treatments; format: physicochemical
Procedure: 7A, p. 315-422. […] Appl. Microbiol. 21:943].
The stability of BacR1 was assessed by determining the activity of BacR1 by bactericidal assay (plate method) after exposure to various temperatures, environmental conditions, and enzymes (Table 2). Solutions of finally purified BacR1 at a concentration of 640 AU/ml were used in these stability experiments. BacR1 samples were held at various temperatures for 15 min, were held at pHs ranging from 3 to 11 at room temperature for 1 h, were incubated in 6M urea at room temperature for 1 h, or were incubated with 1 mg/ml of enzyme at room temperature for 1 h.

[12] = test system: Bordetella brochoseptica; experiment: Inhibitory spectrum, bactericidal assay (plate method); format: cell-based; conditions: B. bronchoseptica
[13] = test system: vancomycin-resistant strains of Enterococcus faecalis and E. faecium; experiment: Additional analyses of the inhibitory spectrum; format: cell-based; conditions: remainder varying degrees of resistance
[14] = test system: S. aureus; experiment: Inhibitory spectrum, S. aureus; format: cell-based, Staphylococcus aureus
[15] = test system: methicillin-resistant S. aureus (MRSA) strains; experiment: Additional analyses of the inhibitory spectrum; format: cell-based, Staphylococcus aureus; conditions: ten MRSA strains tested
[16] = test system: Corynebacterium renale ATCC 19412; experiment: Bactericidal assay of BacR1 (plate method)
[17] = test system: Streptococcus suis; experiment: Inhibitory spectrum, bactericidal assay (plate method); format: cell-based

## BacR1: 26-mer proteinaceous bacteriocin of approximately 3.4 kilodaltons produced by S. aureus UT0007; peptide sequence SEQ ID No. 3 (LGGAATGVIGYISNQTCPTTACTRAC)
[1]; BacR1 100 AU/ml
  exposure time after which no viable cells were detected: 120 min
[1]; prolonged incubation, cells do not recover
  mode of action (bactericidal vs bacteriostatic): bactericidal
[2]
  relative susceptibility: equally (and most) sensitive
[2]; Moraxella bovis
  sensitivity to BacR1 (in words): especially sensitive
[3]
  maximum specific activity: 46 AU/mg
[4]
  relative susceptibility: equally (and most) sensitive
[5]
  sensitivity to BacR1 (in words): killed
[6]
  MIC50 (concentration that caused a 50% inhibition of growth): approximately 6 AU/ml
[7]
  apparent average pI: 7.7
[8]
  bactericidal activity in SDS-PAGE gel overlay: possessed BacR1 activity
[9]
  sensitivity to BacR1 (in words): sensitive
[10]
  sensitivity to BacR1 (in words): sensitive
[11]; 4° C., 15 min, 640 AU/ml
  % Residual Activity: 100%
[11]; 25° C., 15 min, 640 AU/ml
  % Residual Activity: 100%
[11]; 37° C., 15 min, 640 AU/ml
  % Residual Activity: 100%
[11]; -20° C., 15 min, finally purified BacR1 640 AU/ml
  % Residual Activity: 100%
[11]; pH 3 to 11, room temperature, 1 h, 640 AU/ml
  % Residual Activity: 100%
[12]
  sensitivity to BacR1 (in words): killed; also recorded: sensitive
[13]
  share of tested strains sensitive to BacR1: About 40%
[14]; S. aureus
  sensitivity to BacR1 (in words): killed
[14]; S. aureus compared with other sensitive organisms
  relative susceptibility: susceptible, but required higher doses
[15]
  sensitivity to BacR1 (in words): very sensitive
[16]; purification stage: Ammonium Sulfate
  Specific Activity: 1259 AU/mg
[16]; purification stage: C4 Reverse-Phase (1st cycle)
  Specific Activity: 16,642 AU/mg
[16]; purification stage: C4 Reverse-Phase (2nd cycle), finally purified
  Specific Activity: 37,450 AU/mg
[16]; purification stage: Cation Exchange
  Specific Activity: 6963 AU/mg
[16]; purification stage: Supernatant (1 L)
  Specific Activity: 152 AU/mg
[17]
  sensitivity to BacR1 (in words): killed
